Read-outs that look alike come from different tables or passages of the source.
What was measured:
[1] = biological target: T1, OCT3 (Homo sapiens, UniProt O75751); experiment: Cellular uptake ratio, OCT3-overexpressing HEK293 cells vs empty vector; assay type: cell-based
T1 construct: expressed in transfected cells; host or cells: HEK293, stably transfected; gift from Dr. Koepsell and Dr. Gorbulev (University of Würzburg)
T1 sequence (O75751 1-556): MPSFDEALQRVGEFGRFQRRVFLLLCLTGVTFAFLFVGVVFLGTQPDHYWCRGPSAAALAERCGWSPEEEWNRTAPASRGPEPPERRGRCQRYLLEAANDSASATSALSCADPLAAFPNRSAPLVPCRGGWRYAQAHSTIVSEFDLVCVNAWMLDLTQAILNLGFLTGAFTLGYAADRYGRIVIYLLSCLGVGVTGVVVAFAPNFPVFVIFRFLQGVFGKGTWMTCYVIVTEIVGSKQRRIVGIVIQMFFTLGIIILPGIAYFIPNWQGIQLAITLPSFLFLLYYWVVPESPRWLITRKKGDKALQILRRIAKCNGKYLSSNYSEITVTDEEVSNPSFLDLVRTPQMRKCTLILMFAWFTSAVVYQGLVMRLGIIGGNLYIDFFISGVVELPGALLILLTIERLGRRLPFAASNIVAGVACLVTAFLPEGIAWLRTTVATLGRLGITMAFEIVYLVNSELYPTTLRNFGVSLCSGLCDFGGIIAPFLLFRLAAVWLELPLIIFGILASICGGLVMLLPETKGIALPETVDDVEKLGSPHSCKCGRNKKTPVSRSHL
Protocol: (§1) The wild-type cell lines of OCT1 and OCT2, as well as the variant cell lines OCT1*2 and *3, were generated using the Flp-In system (Thermo Fisher Scientific, Darmstadt, Germany) as described in previous publications. The cell line overexpressing OCT3 was a kind gift from Dr. Koepsell and Dr. Gorbulev (University of Würzburg, Germany). Cells transfected with the empty pcDNA5/FRT vector were used for the transport experiments as a control cell line. All cells were cultured approximately up to passage 30.
(§2) Forty-eight hours before the transport experiments, 600,000 cells were plated on 12-well plates pre-coated with poly-D-lysine and incubated at 37 °C with 5% CO2. The prepared 12-well plate with cells was positioned on a heating plate pre-warmed to 37 °C. After removing the medium, the cells were washed with 37 °C HBSS+ (10 mM HEPES in Hank’s balanced salt solution, pH 7.4). Then, one pre-defined concentration of a substrate was added to each well. The incubation period was stopped by adding 2 mL of 4 °C HBSS+ and removing the cells from the heating plate. The cells were washed twice with 4 °C HBSS+. For cell lysis, the cells were incubated for 15 min with 500 µL of 80% acetonitrile (LGC Standards, Wesel, Germany), which contained a respective internal standard (Table 1).
(§3) For concentration-dependent transport, the cells were incubated with defined substrate concentrations (0.1, 1, 10, 30, 100, 300, 600, 1000 µM) for the respective pre-defined incubation times. […] The uptake by a transporter was normalised to the uptake by empty vector-transfected cells. […] The results of transport experiments were normalized to the total protein concentration per well. Total protein quantification was performed using a bicinchoninic acid assay with bovine serum albumin as standard.
(§4) The ratios of cellular uptake were calculated by dividing the total uptake of transporter-overexpressing cells by the total uptake into empty vector transfected cells. The concentration-dependent cellular net uptake was used for analysis of transport kinetics by subtracting for each substrate concentration the uptake of empty vector-transfected cells from the uptake of transporter-overexpressing cells. […] The intrinsic clearance Clint was expressed with the ratio of Vmax and KM.

[2] = biological target: T2, human OCT1*1 (wild-type) (Homo sapiens, UniProt O15245); experiment: Concentration-dependent uptake (transport kinetics) in HEK293 cells overexpressing OCT1 wild-type; settings: for Clint (±SEM): intrinsic clearance = ratio of Vmax and KM, OCT1 wild-type
T2 sequence (O15245 1-554): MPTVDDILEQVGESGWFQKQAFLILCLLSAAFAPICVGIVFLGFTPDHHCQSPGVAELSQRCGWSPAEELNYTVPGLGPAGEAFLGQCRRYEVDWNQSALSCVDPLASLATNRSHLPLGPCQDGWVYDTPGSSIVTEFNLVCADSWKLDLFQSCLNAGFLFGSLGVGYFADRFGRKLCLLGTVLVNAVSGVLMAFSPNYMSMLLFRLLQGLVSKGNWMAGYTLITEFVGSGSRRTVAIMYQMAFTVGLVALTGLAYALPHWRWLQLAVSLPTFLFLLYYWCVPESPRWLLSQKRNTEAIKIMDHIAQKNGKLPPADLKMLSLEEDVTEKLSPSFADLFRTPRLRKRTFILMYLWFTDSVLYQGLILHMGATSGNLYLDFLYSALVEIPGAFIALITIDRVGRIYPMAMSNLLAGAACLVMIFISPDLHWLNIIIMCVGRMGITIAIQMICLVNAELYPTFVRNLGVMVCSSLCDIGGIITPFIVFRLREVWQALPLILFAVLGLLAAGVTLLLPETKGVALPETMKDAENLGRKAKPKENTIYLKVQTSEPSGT

[3] = biological target: T2, human OCT1*1 (wild-type); experiment: Cellular uptake ratio, OCT1-overexpressing HEK293 cells vs empty vector; assay type: cell-based
Protocol: as §1, §2, §3, §4

[4] = biological target: T3, wild-type human OCT2 (Homo sapiens, UniProt O15244); experiment: Cellular uptake ratio, OCT2-overexpressing HEK293 cells vs empty vector; assay type: cell-based
T3 sequence (O15244 1-555): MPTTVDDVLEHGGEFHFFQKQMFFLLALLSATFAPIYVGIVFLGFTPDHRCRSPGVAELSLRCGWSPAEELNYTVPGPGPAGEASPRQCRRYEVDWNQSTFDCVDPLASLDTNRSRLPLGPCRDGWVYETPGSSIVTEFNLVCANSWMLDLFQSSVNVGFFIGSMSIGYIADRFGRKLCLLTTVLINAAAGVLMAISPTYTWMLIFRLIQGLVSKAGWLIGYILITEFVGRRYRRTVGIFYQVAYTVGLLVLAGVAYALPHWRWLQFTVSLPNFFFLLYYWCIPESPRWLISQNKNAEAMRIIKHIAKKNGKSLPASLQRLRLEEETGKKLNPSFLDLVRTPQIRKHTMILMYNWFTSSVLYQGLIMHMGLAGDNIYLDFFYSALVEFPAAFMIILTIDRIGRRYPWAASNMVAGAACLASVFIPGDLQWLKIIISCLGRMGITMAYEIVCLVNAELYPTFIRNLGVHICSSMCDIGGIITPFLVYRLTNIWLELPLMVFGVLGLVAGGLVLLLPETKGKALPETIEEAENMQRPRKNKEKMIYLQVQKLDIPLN
Protocol: as §1, §2, §3, §4

[5] = based on ratio uptake data at 1 µM
[6] = good >5, poor 1–5, non-substrate <1 µL/mg protein/min or uptake not above empty vector
[7] = net uptake (OCT1 minus empty vector), HEK293, 0.1-1000 µM substrate, Michaelis–Menten
[8] = based on ratio uptake data at 100 µM (footnote *)

`C[C@H]1COc2c(N3CCN(C)CC3)c(F)cc3c(=O)c(C(=O)O)cn1c23` [Levofloxacin, levofloxacin] was tested. Which OCT3 transport category [1, 5] did it give?
The OCT3 transport category was 0 (no transport by OCT1, OCT2, and OCT3 occurred (i.e., no kinetic parameters or uptake ratio <2 without significance)).

And the “OCT1 substrate classification from concentration-dependent uptake” value (from here on “OCT1 substrate classification”) [2]?
Its value is “poor substrate of OCT1”.

And the “Clint (±SEM)” value [2]?
Its value is 3.77 ± 2.77 µL/mg Protein/min.

For `Cc1ccc(NC(=O)c2ccc(CN3CCN(C)CC3)cc2)cc1Nc1nccc(-c2cccnc2)n1` [Imatinib, imatinib], which “uptake by OCT1 (normalised to empty vector)” value [3] is on record?
Its value is “did not show uptake by OCT1”.

`Nc1ccn([C@@H]2O[C@H](CO)[C@@H](O)C2(F)F)c(=O)n1` [Gemcitabine, gemcitabine] was tested. Which “OCT1 substrate classification” value [2, 6] did it give?
The value was “none of the four antimetabolites showed uptake by OCT1”.

How did the “OCT1 substrate classification” value [2, 6] turn out when `O=c1ncccn1[C@@H]1O[C@H](CO)[C@@H](O)[C@H]1O` [Zebularine, zebularine] was run?
Its value is “none of the four antimetabolites showed uptake by OCT1”.

How did the “uptake ratio by OCT1 (normalised to empty vector)” value ([3]; 1 µM and 100 µM substance) turn out when `C[n+]1ccc(-c2ccccc2)cc1` [MPP^+, 1-methyl-4-phenylpyridinium] was run?
Its value is “up to 30”.

What about the OCT1 transport category [3, 5] of the same molecule?
The OCT1 transport category was “++ (very good substrates of OCTs that have an intrinsic clearance >15 or show an uptake ratio >10)”.

What about the OCT2 transport category [4, 5] of the same molecule?
Its OCT2 transport category is “++ (very good substrates of OCTs that have an intrinsic clearance >15 or show an uptake ratio >10)”.

What about the “uptake ratio by OCT3 (normalised to empty vector)” value ([1]; 1 µM and 100 µM substance) of the same molecule?
Its value is “relevant uptake”.

And the OCT3 transport category [1, 5]?
Its OCT3 transport category is “++ (very good substrates of OCTs that have an intrinsic clearance >15 or show an uptake ratio >10)”.

And the “Clint (±SEM)” value [2]?
Its value is 20.8 ± 5.04 µL/mg Protein/min.

What about the “Vmax (±SEM)” value [2, 7] of the same molecule?
Its value is 2263 ± 184 pmol/mg Protein/min.

And the Km ([2]; read-out: KM (±SEM), net uptake (OCT1 minus empty vector), HEK293, 0.1-1000 µM substrate, Michaelis–Menten)?
The Km was 108 ± 17.4 µM.

`C[C@@](Cc1ccc(O)c(O)c1)(NN)C(=O)O` [Carbidopa, carbidopa] was tested. Which OCT1 transport category [3, 8] did it give?
The OCT1 transport category was 0 (no transport by OCT1, OCT2, and OCT3 occurred (i.e., no kinetic parameters or uptake ratio <2 without significance)).

And the OCT2 transport category [4, 8]?
The OCT2 transport category was 0 (no transport by OCT1, OCT2, and OCT3 occurred (i.e., no kinetic parameters or uptake ratio <2 without significance)).

And the OCT3 transport category [1, 8]?
Its OCT3 transport category is 0 (no transport by OCT1, OCT2, and OCT3 occurred (i.e., no kinetic parameters or uptake ratio <2 without significance)).

What about the “OCT1 substrate classification” value [2, 6] of the same molecule?
The value was “linear increase in total uptake of both cell lines”.

With `Nc1ccn([C@@H]2O[C@H](CO)[C@@H](O)[C@@H]2O)c(=O)n1` [Cytarabine, cytarabine] as the molecule, how does the “OCT1 substrate classification” value [2] read?
The value was “none of the four antimetabolites showed uptake by OCT1”.

`C[C@H](CS)C(=O)N1CCC[C@H]1C(=O)O` [Captopril, captopril] was tested. Which OCT3 transport category [1, 5] did it give?
The OCT3 transport category was 0 (no transport by OCT1, OCT2, and OCT3 occurred (i.e., no kinetic parameters or uptake ratio <2 without significance)).

For `Nc1nc(O)c2ncn(COC(CO)CO)c2n1` [Ganciclovir, ganciclovir], which OCT3 transport category [1, 5] is on record?
Its OCT3 transport category is 0 (no transport by OCT1, OCT2, and OCT3 occurred (i.e., no kinetic parameters or uptake ratio <2 without significance)).

For `Nc1ncn([C@H]2C[C@H](O)[C@@H](CO)O2)c(=O)n1` [Decitabine, decitabine], which “OCT1 substrate classification” value [2, 6] is on record?
Its value is “none of the four antimetabolites showed uptake by OCT1”.

Which OCT3 transport category [1, 5] does the source give for `Nc1nc2c(ncn2COCCO)c(=O)[nH]1` [Acyclovir, acyclovir] here?
Its OCT3 transport category is 0 (no transport by OCT1, OCT2, and OCT3 occurred (i.e., no kinetic parameters or uptake ratio <2 without significance)).

With `C[N+]1(C)CCC[C@H]1C(=O)[O-]` [Stachydrine, stachydrine] as the molecule, how does the OCT1 transport category [3, 5] read?
The OCT1 transport category was 0 (no transport by OCT1, OCT2, and OCT3 occurred (i.e., no kinetic parameters or uptake ratio <2 without significance)).

What about the OCT2 transport category [4, 5] of the same molecule?
The OCT2 transport category was 0 (no transport by OCT1, OCT2, and OCT3 occurred (i.e., no kinetic parameters or uptake ratio <2 without significance)).

What about the OCT3 transport category [1, 5] of the same molecule?
Its OCT3 transport category is 0 (no transport by OCT1, OCT2, and OCT3 occurred (i.e., no kinetic parameters or uptake ratio <2 without significance)).

What about the “OCT1 substrate classification” value [2, 6] of the same molecule?
The value was “very poor OCT1-mediated transport”.

And the “Vmax (±SEM)” value [2, 7]?
The value was 238 ± 134 pmol/mg Protein/min.

How did the OCT3 transport category [1, 5] turn out when `C=C1[C@H](CO)[C@@H](O)C[C@@H]1n1cnc2c(=O)[nH]c(N)nc21` [Entecavir, entecavir] was run?
The OCT3 transport category was 0 (no transport by OCT1, OCT2, and OCT3 occurred (i.e., no kinetic parameters or uptake ratio <2 without significance)).
